Test results published in patent EP2951180B1, “2,6,7,8 SUBSTITUTED PURINES AS HDM2 INHIBITORS” (Merck Sharp & Dohme Corp., priority 2013, dated 2014).

Molecular target: T1, HDM2 (Homo sapiens, UniProt Q00987)
T1 construct: Thioredoxin (N); made in house; host or cells: E. coli strain BL21(DE3)Rosetta
Assay: HDM2 FRET assay (inhibition of binding of FITC labeled p53-pocket peptide to HDM2)
Conditions: Table 21; read-out: FRET IC50
Text: Methods: An HDM2 FRET assay was developed to assess the compounds' inhibitory activity towards binding of p53 protein. […] Protein was purified using Ni-affinity chromatography, followed by size exclusion chromatography using Superdex 75 26/60 column. […] The HDM2 assay buffer contained 1x Phosphate Buffered Saline (Invitrogen, Cat#14190), 0.01% BSA (Jackson ImmunoResearch, Cat# 001-000-162), 0.01% Tween-20. In the 1X assay buffer recombinant HDM2 protein, peptide and Lumi4-Tb Cryptate-conjugate mouse anti-6xHis antibody (cisbio, Cat#Tb61HISTLB) were added and transferred to ProxiPlate PLUS (PerkinElmer, Cat#6008269), containing compounds so that final DMSO concentration is 0.1% . Final concentrations of reagents in the assay wells are 0.5 nM HDM2, 0.25nM anti HIS (Tb label) antibody and 3nM peptide. […] Ratio of em520/em495 was used to calculate %inhibition and to obtain IC50 with 4-parameter logistic equation.
IC50 DETERMINATIONS: Dose-response curves were plotted from the inhibition data, from 10 point serial dilutions of inhibitory compounds. Concentration of compound was plotted against em520/Cem495 ratio signal. To generate IC50 values, the dose-response curves were fitted to a standard sigmoidal curve and IC50 values were derived by nonlinear regression analysis.

T1 sequence (Q00987 17-125): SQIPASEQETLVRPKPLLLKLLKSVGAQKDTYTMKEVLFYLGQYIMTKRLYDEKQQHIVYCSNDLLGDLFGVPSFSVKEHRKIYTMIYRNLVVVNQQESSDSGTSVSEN

First: C[C@@H](Nc1nc(-c2noc(=O)[nH]2)nc2nc(C3CCCCC3c3ccccc3)n(C[C@H]3CC[C@H](C)CC3)c12)C1CCC1 (single isomer, unassigned) [Example 21.26]
Second: COCC(c1ccccc1)c1nc2nc(-c3noc(=O)[nH]3)nc(N[C@H](C)C3CCC3)c2n1C[C@H]1CC[C@H](C)CC1 (single isomer, unassigned) [Example 21.41, 3-(6-{[(1R)-1-cyclobutylethyl]amino}-8-[(1R or S)-2-methoxy-1-phenylethyl]-7-[(trans-4-methylcyclohexyl)methyl]-7H-purin-2-yl)-1,2,4-oxadiazol-5(4H)-one]
The IC50 of the first is 6.6-fold higher: 21.6 nM for the first, 3.25 nM for the second. The second is the more potent here.

Going from `CC(c1ccccc1F)c1nc2nc(-c3noc(=O)[nH]3)nc(N[C@H](C)C3CCC3)c2n1C[C@H]1CC[C@H](C)CC1` (single isomer, unassigned) [Example 21.35] to `COCC(c1ccccc1)c1nc2nc(-c3noc(=O)[nH]3)nc(N[C@H](C)C3CCC3)c2n1C[C@H]1CC[C@H](C)CC1` (single isomer, unassigned) [Example 21.42, 3-(6-{[(1R)-1-cyclobutylethyl]amino}-8-[(1S or R)-2-methoxy-1-phenylethyl]-7-[(trans-4-methylcyclohexyl)methyl]-7H-purin-2-yl)-1,2,4-oxadiazol-5(4H)-one], the IC50 rises from 2.03 nM to 3.41 nM (1.7-fold). The first is the more potent here.

In the case of `CC(c1ccccc1F)c1nc2nc(-c3noc(=O)[nH]3)nc(N[C@H](C)C3CCC3)c2n1C[C@H]1CC[C@H](C)CC1` (single isomer, unassigned) [Example 21.36], the IC50 is reported as 43.1 nM.

Same assay, conditions: Table 22; read-out: FRET IC50

First: C[C@@H](Nc1nc(-c2noc(=O)[nH]2)nc2nc(C(C)(O)c3ccccn3)n(C[C@H]3CC[C@H](C)CC3)c12)C1CCC1 (single isomer, unassigned) [Example 22.6]
Second: C[C@@H](Nc1nc(-c2noc(=O)[nH]2)nc2nc(C(C)(O)c3ccccc3)n(C[C@H]3CC[C@H](C)CC3)c12)C1CCC1 (single isomer, unassigned) [Example 22.23]
The IC50 of the first is 1.6-fold higher: 10.4 nM for the first, 6.38 nM for the second. The second is the more potent here.

First: C[C@@H](Nc1nc(-c2noc(=O)[nH]2)nc2nc(C(C)(O)c3ccccn3)n(C[C@H]3CC[C@H](C)CC3)c12)C1CCC1 (single isomer, unassigned) [Example 22.7]
Second: C[C@@H](Nc1nc(-c2noc(=O)[nH]2)nc2nc(C(C)(O)c3ccccc3)n(C[C@H]3CC[C@H](C)CC3)c12)C1CCC1 (single isomer, unassigned) [Example 22.24]
The IC50 of the first is 1.7-fold lower: 19.9 nM for the first, 33.8 nM for the second.

Going from `C[C@@H](Nc1nc(-c2noc(=O)[nH]2)nc2nc(C(C)(O)C(F)(F)F)n(C[C@H]3CC[C@H](C)CC3)c12)C1CCC1` (single isomer, unassigned) [Example 22.12] to `CC(O)c1nc2nc(-c3noc(=O)[nH]3)nc(N[C@H](C)C3CCC3)c2n1C[C@H]1CC[C@H](C)CC1` (single isomer, unassigned) [Example 22.14], the IC50 rises from 26.7 nM to 81.1 nM (3-fold).

First: C[C@@H](Nc1nc(-c2noc(=O)[nH]2)nc2nc(C(C)(O)C(F)(F)F)n(C[C@H]3CC[C@H](C)CC3)c12)C1CCC1 (single isomer, unassigned) [Example 22.13]
Second: CC(O)c1nc2nc(-c3noc(=O)[nH]3)nc(N[C@H](C)C3CCC3)c2n1C[C@H]1CC[C@H](C)CC1 (single isomer, unassigned) [Example 22.15]
The IC50 of the first is 7.7-fold lower: 5.84 nM for the first, 45.1 nM for the second.

Compound `COC(c1ccccc1)c1nc2nc(-c3noc(=O)[nH]3)nc(N[C@H](C)C3CCC3)c2n1C[C@H]1CC[C@H](C)CC1` (single isomer, unassigned) [Example 22.19, 3-(6-{[(1R)-1-cyclobutylethyl]amino}-8-[(R or S)-methoxy(phenyl)methyl]-7-[(trans-4-methylcyclohexyl)methyl]-7H-purin-2-yl)-1,2,4-oxadiazol-5(4H)-one] has an IC50 of 7.7 nM.
For `COC(c1ccccc1)c1nc2nc(-c3noc(=O)[nH]3)nc(N[C@H](C)C3CCC3)c2n1C[C@H]1CC[C@H](C)CC1` (single isomer, unassigned) [Example 22.20, 3-(6-{[(1R)-1-cyclobutylethyl]amino}-8-[(S or R)-methoxy(phenyl)methyl]-7-[(trans-4-methylcyclohexyl)methyl]-7H-purin-2-yl)-1,2,4-oxadiazol-5(4H)-one], the IC50 was 1.5 nM.
